In patent US20150197550A1 (UNIVERSITY OF ULSTER, priority 2012, published 2015):
Numbered stars: 1 amine (or outer) side, 2 acyl side, 3 side chain; on linkers, the order of the positions; unused ones are H or OH. Square brackets hold non-standard residues; d marks the D form. Side chains are listed from the residue outwards. Peptide text beside a SMILES is read from it. * marks the point of attachment. γGlu = O=C(O)[C@H](CCC(=O)[*:2])N[*:1]; Palmitoyl = CCCCCCCCCCCCCCCC(=O)*; Abu = CC[C@H](N)C(=O)O; Aib = CC(C)(N)C(=O)O

assay: Stability on incubation with mouse plasma for 8 h (RP-HPLC peak height); assay type: in vitro ADME; settings: mouse plasma, 8 h, peak height vs time = 0 h; read-out: Percentage of degradation after 8h
Description: The samples were then separated on RP-HPLC and the peak height compared to the value at time=0 hours.

Row | Structure (SMILES) | metabolised at 8 h
1 | CC[C@H](C)[C@H](NC(=O)[C@H](Cc1ccccc1)NC(=O)[C@@H](NC(=O)CNC(=O)[C@H](CCC(=O)O)NC(=O)[C@@H](C)NC(=O)[C@@H](N)Cc1c[nH]cn1)[C@@H](C)O)C(=O)N[C@@H](CO)C(=O)N[C@@H](CC(=O)O)C(=O)N[C@@H](Cc1ccc(O)cc1)C(=O)N[C@@H](CO)C(=O)N[C@@H](CCCCN)C(=O)N[C@@H](Cc1ccc(O)cc1)C(=O)N[C@@H](CCSC)C(=O)N[C@@H](CC(=O)O)C(=O)N[C@@H](CC(N)=O)C(=O)N[C@@H](CCCNC(=N)N)C(=O)N[C@@H](CCCNC(=N)N)C(=O)N[C@@H](C)C(=O)N[C@@H](CCCCN)C(=O)N[C@@H](CC(=O)O)C(=O)N[C@@H](Cc1ccccc1)C(=O)N[C@H](C(=O)N[C@@H](CCC(N)=O)C(=O)N[C@@H](Cc1c[nH]c2ccccc12)C(=O)N[C@@H](CC(C)C)C(=O)N[C@@H](CCSC)C(=O)N[C@@H](CC(N)=O)C(=O)N[C@H](C(=O)O)[C@@H](C)O)C(C)C [(D-A^2 I^7) dogfish glucagon, (D-A^2I^7) dogfish glucagon] (H-H[dA]EGTFISDYSKYMDNRRAKDFVQWLMNT-OH; N-terminus and C-terminus assumed) | 33%

same assay, conditions: mouse, plasma

Row | metabolised at 8 h | Structure (SMILES)
2 | 58.4% | CC[C@H](NC(=O)[C@@H](N)Cc1c[nH]cn1)C(=O)N[C@@H](CCC(=O)O)C(=O)NCC(=O)N[C@H](C(=O)N[C@@H](Cc1ccccc1)C(=O)N[C@H](C(=O)N[C@@H](CO)C(=O)N[C@@H](CC(=O)O)C(=O)N[C@@H](Cc1ccc(O)cc1)C(=O)N[C@@H](CO)C(=O)N[C@@H](CCCCN)C(=O)N[C@@H](Cc1ccc(O)cc1)C(=O)N[C@@H](CCSC)C(=O)N[C@@H](CC(=O)O)C(=O)N[C@@H](CC(N)=O)C(=O)N[C@@H](CCCNC(=N)N)C(=O)N[C@@H](CCCNC(=N)N)C(=O)N[C@@H](C)C(=O)N[C@@H](CCCCN)C(=O)N[C@@H](CC(=O)O)C(=O)N[C@@H](Cc1ccccc1)C(=O)N[C@H](C(=O)N[C@@H](CCC(N)=O)C(=O)N[C@@H](Cc1c[nH]c2ccccc12)C(=O)N[C@@H](CC(C)C)C(=O)N[C@@H](CCSC)C(=O)N[C@@H](CC(N)=O)C(=O)N[C@H](C(=O)O)[C@@H](C)O)C(C)C)[C@@H](C)O)[C@@H](C)O [(Abu^2) dogfish glucagon] (H-H[Abu]EGTFTSDYSKYMDNRRAKDFVQWLMNT-OH; N-terminus and C-terminus assumed)
3 | 47.4% | CSCC[C@H](NC(=O)[C@H](Cc1ccc(O)cc1)NC(=O)[C@H](CCCCN)NC(=O)[C@H](CO)NC(=O)[C@H](Cc1ccc(O)cc1)NC(=O)[C@H](CC(=O)O)NC(=O)[C@H](CO)NC(=O)[C@@H](NC(=O)[C@H](Cc1ccccc1)NC(=O)[C@@H](NC(=O)CNC(=O)[C@H](CCC(=O)O)NC(=O)C(C)(C)NC(=O)[C@@H](N)Cc1c[nH]cn1)[C@@H](C)O)[C@@H](C)O)C(=O)N[C@@H](CC(=O)O)C(=O)N[C@@H](CC(N)=O)C(=O)N[C@@H](CCCNC(=N)N)C(=O)N[C@@H](CCCNC(=N)N)C(=O)N[C@@H](C)C(=O)N[C@@H](CCCCN)C(=O)N[C@@H](CC(=O)O)C(=O)N[C@@H](Cc1ccccc1)C(=O)N[C@H](C(=O)N[C@@H](CCC(N)=O)C(=O)N[C@@H](Cc1c[nH]c2ccccc12)C(=O)N[C@@H](CC(C)C)C(=O)N[C@@H](CCSC)C(=O)N[C@@H](CC(N)=O)C(=O)N[C@H](C(=O)O)[C@@H](C)O)C(C)C [(Aib^2) dogfish glucagon] (H-H[Aib]EGTFTSDYSKYMDNRRAKDFVQWLMNT-OH; N-terminus and C-terminus assumed)
4 | 33.9% | CSCC[C@H](NC(=O)[C@H](C)NC(=O)[C@H](CCCCN)NC(=O)[C@H](CO)NC(=O)[C@H](Cc1ccc(O)cc1)NC(=O)[C@H](CC(=O)O)NC(=O)[C@H](CO)NC(=O)[C@@H](NC(=O)[C@H](Cc1ccccc1)NC(=O)[C@@H](NC(=O)CNC(=O)[C@H](CCC(=O)O)NC(=O)[C@@H](C)NC(=O)[C@@H](N)Cc1c[nH]cn1)[C@@H](C)O)[C@@H](C)O)C(=O)N[C@@H](CC(=O)O)C(=O)N[C@@H](CC(N)=O)C(=O)N[C@@H](CCCNC(=N)N)C(=O)N[C@@H](CCCNC(=N)N)C(=O)N[C@@H](C)C(=O)N[C@@H](CCCCN)C(=O)N[C@@H](CC(=O)O)C(=O)N[C@@H](Cc1ccccc1)C(=O)N[C@H](C(=O)N[C@@H](CCC(N)=O)C(=O)N[C@@H](Cc1c[nH]c2ccccc12)C(=O)N[C@@H](CC(C)C)C(=O)N[C@@H](CCSC)C(=O)N[C@@H](CC(N)=O)C(=O)N[C@H](C(=O)O)[C@@H](C)O)C(C)C [(D-A^2 A^13) dogfish glucagon, (D-A^2A^13) dogfish glucagon] (H-H[dA]EGTFTSDYSKAMDNRRAKDFVQWLMNT-OH; N-terminus and C-terminus assumed)
5 | 31.7% | CSCC[C@H](NC(=O)[C@H](Cc1ccc(O)cc1)NC(=O)[C@H](CCCCN)NC(=O)[C@H](CO)NC(=O)[C@H](Cc1ccc(O)cc1)NC(=O)[C@H](CC(=O)O)NC(=O)[C@H](CO)NC(=O)[C@@H](NC(=O)[C@H](Cc1ccccc1)NC(=O)[C@@H](NC(=O)CNC(=O)[C@H](CCC(=O)O)NC(=O)[C@@H](C)NC(=O)[C@@H](N)Cc1c[nH]cn1)[C@@H](C)O)[C@@H](C)O)C(=O)N[C@@H](CC(=O)O)C(=O)N[C@@H](CC(N)=O)C(=O)N[C@@H](CCCNC(=N)N)C(=O)N[C@@H](CCCNC(=N)N)C(=O)N[C@@H](C)C(=O)N[C@@H](CCCCN)C(=O)N[C@H](CC(=O)O)C(=O)N[C@@H](Cc1ccccc1)C(=O)N[C@H](C(=O)N[C@@H](CCC(N)=O)C(=O)N[C@@H](Cc1c[nH]c2ccccc12)C(=O)N[C@@H](CC(C)C)C(=O)N[C@@H](CCSC)C(=O)N[C@@H](CC(N)=O)C(=O)N[C@H](C(=O)O)[C@@H](C)O)C(C)C [(D-A^2 D-D^21) dogfish glucagon, (D-A^2D-D^21) dogfish glucagon] (H-H[dA]EGTFTSDYSKYMDNRRAK[dD]FVQWLMNT-OH; N-terminus and C-terminus assumed)
6 | 26.5% | CSCC[C@H](NC(=O)[C@H](CC(C)C)NC(=O)[C@H](Cc1c[nH]c2ccccc12)NC(=O)[C@H](CCC(N)=O)NC(=O)[C@@H](NC(=O)[C@H](Cc1ccccc1)NC(=O)[C@H](CC(=O)O)NC(=O)[C@H](CCCCN)NC(=O)[C@H](C)NC(=O)[C@H](CCCNC(=N)N)NC(=O)[C@H](CCCNC(=N)N)NC(=O)[C@H](CC(N)=O)NC(=O)[C@H](CC(=O)O)NC(=O)[C@H](CCSC)NC(=O)[C@@H](Cc1ccc(O)cc1)NC(=O)[C@H](CCCCN)NC(=O)[C@H](CO)NC(=O)[C@H](Cc1ccc(O)cc1)NC(=O)[C@H](CC(=O)O)NC(=O)[C@H](CO)NC(=O)[C@@H](NC(=O)[C@H](Cc1ccccc1)NC(=O)[C@@H](NC(=O)CNC(=O)[C@H](CCC(=O)O)NC(=O)[C@@H](C)NC(=O)[C@@H](N)Cc1c[nH]cn1)[C@@H](C)O)[C@@H](C)O)C(C)C)C(=O)N[C@@H](CC(N)=O)C(=O)N[C@H](C(=O)O)[C@@H](C)O [(D-A^2 D-Y^13) dogfish glucagon, (D-A^2D-Y^13) dogfish glucagon] (H-H[dA]EGTFTSDYSK[dY]MDNRRAKDFVQWLMNT-OH; N-terminus and C-terminus assumed)
7 | 20.7% | CC[C@H](C)[C@H](NC(=O)[C@H](CO)NC(=O)[C@H](Cc1ccc(O)cc1)NC(=O)[C@H](CC(=O)O)NC(=O)[C@H](CO)NC(=O)[C@@H](NC(=O)[C@H](Cc1ccccc1)NC(=O)[C@@H](NC(=O)CNC(=O)[C@H](CCC(=O)O)NC(=O)[C@@H](C)NC(=O)[C@@H](N)Cc1c[nH]cn1)[C@@H](C)O)[C@@H](C)O)C(=O)N[C@@H](Cc1ccc(O)cc1)C(=O)N[C@@H](CCSC)C(=O)N[C@@H](CC(=O)O)C(=O)N[C@@H](CC(N)=O)C(=O)N[C@@H](CCCNC(=N)N)C(=O)N[C@@H](CCCNC(=N)N)C(=O)N[C@@H](C)C(=O)N[C@@H](CCCCN)C(=O)N[C@@H](CC(=O)O)C(=O)N[C@@H](Cc1ccccc1)C(=O)N[C@H](C(=O)N[C@@H](CCC(N)=O)C(=O)N[C@@H](Cc1c[nH]c2ccccc12)C(=O)N[C@@H](CC(C)C)C(=O)N[C@@H](CCSC)C(=O)N[C@@H](CC(N)=O)C(=O)N[C@H](C(=O)O)[C@@H](C)O)C(C)C [(D-A^2 I^12) dogfish glucagon, (D-A^2I^12) dogfish glucagon] (H-H[dA]EGTFTSDYSIYMDNRRAKDFVQWLMNT-OH; N-terminus and C-terminus assumed)
8 | 11.6% | CCCCCCCCCCCCCCCC(=O)N[C@@H](CCC(=O)NCCCC[C@H](NC(=O)[C@@H](NC(=O)[C@H](CC(N)=O)NC(=O)[C@H](CCSC)NC(=O)[C@H](CC(C)C)NC(=O)[C@H](Cc1c[nH]c2ccccc12)NC(=O)[C@H](CCC(N)=O)NC(=O)[C@@H](NC(=O)[C@H](Cc1ccccc1)NC(=O)[C@H](CC(=O)O)NC(=O)[C@H](CCCCN)NC(=O)[C@H](C)NC(=O)[C@H](CCCNC(=N)N)NC(=O)[C@H](CCCNC(=N)N)NC(=O)[C@H](CC(N)=O)NC(=O)[C@H](CC(=O)O)NC(=O)[C@H](CCSC)NC(=O)[C@H](Cc1ccc(O)cc1)NC(=O)[C@H](CCCCN)NC(=O)[C@H](CO)NC(=O)[C@H](Cc1ccc(O)cc1)NC(=O)[C@H](CC(=O)O)NC(=O)[C@H](CO)NC(=O)[C@@H](NC(=O)[C@H](Cc1ccccc1)NC(=O)[C@@H](NC(=O)CNC(=O)[C@H](CCC(=O)O)NC(=O)[C@@H](C)NC(=O)[C@@H](N)Cc1c[nH]cn1)[C@@H](C)O)[C@@H](C)O)C(C)C)[C@@H](C)O)C(=O)O)C(=O)O [(D-A^2) dogfish glucagon Lys^30-γ-Glutamyl-PAL] (H-H[dA]EGTFTSDYSKYMDNRRAKDFVQWLMNTK([γGlu-Palmitoyl])-OH; N-terminus and C-terminus assumed)
